# Experimental data taken from patent publication US20190166843A1, “Pesticidal Active Mixtures Comprising Isoxazoline Compounds I” (BASF SE, priority 2008, published 2019).
# Tests used:
# [1] = system: Boll Weevil (Anthonomus grandis); test: Test B.2 Control of boll weevil, insect diet with eggs, 24-well plates; type: in vivo; conditions: 5 days
# Text: (§1) Synergism can be described as an interaction where the combined effect of two or more compounds is greater than the sum of the individual effects of each of the compounds. The presence of a synergistic effect in terms of percent control, between two mixing partners (X and Y) can be calculated using the Colby equation (Colby, S. R., 1967, Calculating Synergistic and Antagonistic Responses in Herbicide Combinations, Weeds, 15, 20-22):
# (§2) When the observed combined control effect is greater than the expected combined control effect (E), then the combined effect is synergistic.
# For evaluating control of boll weevil (Anthonomus grandis) the test unit consisted of 24-well-microtiter plates containing an insect diet and 20-30 A. grandis eggs. The compounds or mixtures were formulated using a solution containing 75 wt % water and 25 wt % DMSO. Different concentrations of formulated compounds or mixtures were sprayed onto the insect diet at 20 μl, using a custom built micro atomizer, at two replications.
# For experimental mixtures in these tests identical volumes of both mixing partners at the desired concentrations respectively, were mixed together.
# After application, microtiter plates were incubated at 23±1° C., 50±5% RH for 5 days. Egg and larval mortality was then visually assessed.
# [2] = system: Green Peach Aphid (Myzus persicae); test: Test B.1 Control of green peach aphid through systemic means, artificial diet under membrane, 96-well plates; type: in vivo; conditions: 3 days
# Text: as §1, §2
# For evaluating control of green peach aphid (Myzus persicae) through systemic means the test unit consisted of 96-well-microtiter plates containing liquid artificial diet under an artificial membrane.
# The compounds or mixtures were formulated using a solution containing 75 wt % water and 25 wt % DMSO. Different concentrations of formulated compounds or mixtures were pipetted into the aphid diet, using a custom built pipetter, at two replications. For experimental mixtures in these tests identical volumes of both mixing partners at the desired concentrations respectively, were mixed together.
# After application, 5-8 adult aphids were placed on the artificial membrane inside the microtiter plate wells. The aphids were then allowed to suck on the treated aphid diet and incubated at 23±1° C., 50+5% RH for 3 days. Aphid mortality and fecundity was then visually assessed.
# [3] = compound II alone at 0.4 ppm (0.4 + 0)
# [4] = C.I.240 alone at 0.08 ppm (0 + 0.08)
compound,measurement,setting,value
"N#CCNC(=O)c1cnccc1C(F)(F)F [Flonicamid, flonicamid]",Average Control %,[1]; compound II alone at 4 ppm (4 + 0),0%
"CN1COCN(Cc2cnc(Cl)s2)/C1=N\[N+](=O)[O-] [Thiamethoxam, thiamethoxam]",Average Control %,[2]; [3],25%
"CC1(C)C(C=C(Cl)Cl)C1C(=O)OC(C#N)c1cccc(Oc2ccccc2)c1 (stereo not drawn) [Alpha-Cypermethrin, alpha-cypermethrin]",Average Control %,[1]; compound II alone at 0.08 ppm (0.08 + 0),0%
Cc1cc(C2=NOC(c3cc(Cl)cc(Cl)c3)(C(F)(F)F)C2)ccc1C(=O)NCC(=O)NCC(F)(F)F (stereo not drawn) [C.I.240],Average Control %,[2]; [4],0%
same,Average Control %,[2]; C.I.240 alone at 2 ppm (0 + 2),0%
same,Average Control %,[1]; [4],0%
same,Average Control %,[1]; C.I.240 alone at 0.4 ppm (0 + 0.4),50%
"O=[N+]([O-])NC1=NCCN1Cc1ccc(Cl)nc1 [Imidacloprid, imidacloprid]",Average Control %,[2]; [3],0%
abamectin,Average Control %,[1]; compound II alone at 0.016 ppm (0.016 + 0),50%
